The source of these data is patent US11203599B2, “Solid forms of an antiviral compound” (Gilead Pharmasset LLC, priority 2014, dated 2021).

Common to all, as to format: physicochemical
The nature of series [1]: Dynamic vapor sorption (DVS).
Series [2] can be described thus: Stable form screen of Compound I bis-HCl: solubility in solvents. Conditions: thermodynamic from solid. As to the method: (§1) The stable form screen of Compound I bis-HCl was performed using 20 solvents (5-10 volumes) in an attempt to discover all crystalline forms, as summarized in Table 2. Four crystalline solvates were discovered in the slurries, which utilized alcohols such as methanol, ethanol and 1-propanol. With ethanol, the initial precipitation was Compound I bis-HCl Form III solids; after stirring for two weeks, the solids became Compound I bis-HCl Form V. The shapes of these crystals appeared as needles, shown in FIG. 47. After vacuum drying, these solvates lost solvents easily and changed to Compound I bis-HCl Form VI. […] For example, Compound I bis-HCl Form VI contains 8.8% water by KF after drying the methanol solvate and contains 5.2% water after drying the ethanol solvate. Each form was characterized by XRPD, DSC and TGA (FIGS. 4-19). TGA and DSC analysis were conducted after the samples were dried at room temperature in vacuum oven for 1 hour.

Series [3] can be described thus: Water uptake of the desolvated form in contact with air (water by KF). Here is the method:
as §1

Counter-ions that a name gives are not always drawn.

Turning to `COC[C@H]1C[C@@H](c2ncc(-c3ccc4c(c3)COc3cc5c(ccc6nc([C@@H]7CC[C@H](C)N7C(=O)[C@@H](NC(=O)OC)C(C)C)[nH]c65)cc3-4)[nH]2)N(C(=O)[C@H](NC(=O)OC)c2ccccc2)C1` [Compound I D-tartrate Form II, methyl {(2S)-1-[(2S,5S)-2-(9-{2-[(2S,4S)-1-{(2R)-2-[(methoxycarbonyl)amino]-2-phenylacetyl}-4-(methoxymethyl)pyrrolidin-2-yl]-1H-imidazol-5-yl}-1,11-dihydroisochromeno[4′,3′:6,7]naphtho[1,2-d]imidazol-2-yl)-5-methylpyrrolidin-1-yl]-3-methyl-1-oxobutan-2-yl}carbamate D-tartrate], the “Moisture uptake in DVS” value in series [1] (between about 10-50% RH, FIG. 53) was “about 7%”.

As a reminder, the solubility is how much of the substance goes into solution per volume. Regarding `COC[C@H]1C[C@@H](c2ncc(-c3ccc4c(c3)COc3cc5c(ccc6nc([C@@H]7CC[C@H](C)N7C(=O)[C@@H](NC(=O)OC)C(C)C)[nH]c65)cc3-4)[nH]2)N(C(=O)[C@H](NC(=O)OC)c2ccccc2)C1` [Compound I bis-HCl, methyl {(2S)-1-[(2S,5 S)-2-(9-{2-[(2S,4S)-1-{(2R)-2-[(methoxycarbonyl)amino]-2-phenylacetyl}-4-(methoxymethyl)pyrrolidin-2-yl]-1H-imidazol-5-yl}-1,11-dihydroisochromeno[4′,3′:6,7]naphtho[1,2-d]imidazol-2-yl)-5-methylpyrrolidin-1-yl]-3-methyl-1-oxobutan-2-yl}carbamate bis-hydrochloride], the solubility was 9000 µg/mL in series [2] (ethanol, organic solvent or mixture, solvent EtOH, initial Form III, final Form V); over 20000 µg/mL in series [2] (ethanol/water, aqueous with cosolvent or surfactant or cyclodextrin, solvent EtOH/water, Solution); 50000 µg/mL in series [2] (methanol, organic solvent or mixture, solvent MeOH, final form Compound I bis-HCl Form II); 9000 µg/mL in series [2] (organic solvent or mixture, solvent 1-Propanol, final form Compound I bis-HCl Form IV); over 50000 µg/mL in series [2] (organic solvent or mixture, solvent 2-Butanol, Solution); 6000 µg/mL in series [2] (organic solvent or mixture, solvent Acetone, Mesophase). Further, the solubility in series [2] (organic solvent or mixture, solvent DCM, Solution) was over 20000 µg/mL; in series [2] (organic solvent or mixture, solvent Ethyl acetate, Mesophase) it was under 1000 µg/mL; in series [2] (organic solvent or mixture, solvent IPAc, Mesophase) it was under 1000 µg/mL; in series [2] (organic solvent or mixture, solvent MIBK, Mesophase), under 1000 µg/mL; in series [2] (organic solvent or mixture, solvent MTBE, Amorphous) it was under 1000 µg/mL; in series [2] (organic solvent or mixture, solvent Toluene, Mesophase), under 1000 µg/mL. The solubility in series [2] (organic solvent or mixture, solvent heptane, Amorphous) was under 1000 µg/mL; in series [2] (solvent Water, final form Amorphous) it was under 1000 µg/mL.

Take `COC[C@H]1C[C@@H](c2ncc(-c3ccc4c(c3)COc3cc5c(ccc6nc([C@@H]7CC[C@H](C)N7C(=O)[C@@H](NC(=O)OC)C(C)C)[nH]c65)cc3-4)[nH]2)N(C(=O)[C@H](NC(=O)OC)c2ccccc2)C1` [Compound I bis-HCl Form VI, methyl {(2S)-1-[(2S,5S)-2-(9-{2-[(2S,4S)-1-{(2R)-2-[(methoxycarbonyl)amino]-2-phenylacetyl}-4-(methoxymethyl)pyrrolidin-2-yl]-1H-imidazol-5-yl}-1,11-dihydroisochromeno[4′,3′:6,7]naphtho[1,2-d]imidazol-2-yl)-5-methylpyrrolidin-1-yl]-3-methyl-1-oxobutan-2-yl}carbamate bis-hydrochloride]: the results for the “Water by KF” value in series [3] (after drying the ethanol solvate) and in series [3] (after drying the methanol solvate) were 5.2% and 8.8%, respectively. The “Water absorption in contact with air” value in series [3] (desolvated form) was “absorbs water quickly”. The “Hygroscopicity by DVS analysis” value in series [1] (FIG. 19) is “hygroscopic”.
